ChEMBL document CHEMBL6114953, “De novo discovery of cyclic peptide inhibitors of IL-11 signaling” (Bioorg Med Chem, 2025)
Activity calls are given as the source filed them. The calls are words filed in the database; no cut-off is given here. Where a SMILES comes first, the peptide text is derived from it. Bridges are numbered along the chain shown (N, C = ends).

What was measured:
[1] = Inhibition of his-tagged recombinant human IL-11 (22 to 199 residues) expressed in HEK293 cells/biotinylated recombinant human IL-11Ralpha (24 to 370 residues) expressed in HEK293 cells incubated for 1 hr by AlphaLISA assay; format: cell-based
[2] = target: T1, Interleukin-11 (Homo sapiens) (UniProt P20809); assay: Binding affinity to CAP chip-immobilized IL-11 (unknown origin) by SPR analysis
T1 sequence (whole entry): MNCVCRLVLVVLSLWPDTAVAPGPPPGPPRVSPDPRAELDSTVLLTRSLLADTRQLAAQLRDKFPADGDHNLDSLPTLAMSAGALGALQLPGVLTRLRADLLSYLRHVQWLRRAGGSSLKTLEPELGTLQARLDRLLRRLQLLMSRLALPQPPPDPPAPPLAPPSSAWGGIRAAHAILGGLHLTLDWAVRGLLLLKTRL

[3] = target: T2, Interleukin-11 receptor subunit alpha (Homo sapiens) (UniProt Q14626); assay: Binding affinity to CAP chip-immobilized biotinylated recombinant human IL-11Ralpha by SPR analysis
T2 sequence (whole entry): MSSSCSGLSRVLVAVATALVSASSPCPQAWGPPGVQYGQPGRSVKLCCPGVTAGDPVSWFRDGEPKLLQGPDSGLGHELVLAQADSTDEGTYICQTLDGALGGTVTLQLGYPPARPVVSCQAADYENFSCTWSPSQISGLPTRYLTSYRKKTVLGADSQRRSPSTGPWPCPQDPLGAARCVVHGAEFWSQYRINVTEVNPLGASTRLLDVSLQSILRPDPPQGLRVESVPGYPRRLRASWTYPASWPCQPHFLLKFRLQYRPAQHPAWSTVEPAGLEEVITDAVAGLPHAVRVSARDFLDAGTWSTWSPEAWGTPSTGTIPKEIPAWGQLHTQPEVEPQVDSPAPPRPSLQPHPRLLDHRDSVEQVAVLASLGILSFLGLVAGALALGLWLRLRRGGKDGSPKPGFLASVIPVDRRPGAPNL

[4] = Binding affinity to CAP chip-immobilized IL-6 (unknown origin) by SPR analysis; settings: Homo sapiens
Homo sapiens = species: Homo sapiens; assay: Binding affinity to CAP chip-immobilized IL-6R (unknown origin) by SPR analysis
Interleukin-11 = target: T3, Interleukin-11 (Homo sapiens, UniProt P20809); assay: Binding affinity to CAP chip-immobilized IL-11 (unknown origin) assessed as dissociation constant by SPR analysis
T3 sequence (P20809 whole entry): T1 sequence (whole entry)

| Activity [2] | Activity [3] | Activity [4] | Activity (Homo sapiens) | Kd (Interleukin-11) [nM] | Compound | Ki [1] [nM] |
| --- | --- | --- | --- | --- | --- | --- |
| inactive | inactive | inactive | inactive |  | C=C(CCCCC)[C@@H](O)[C@H](C)C(=O)N1C(=O)OC[C@@H]1C(C)C | > 28000 |
|  | inactive | inactive | inactive | 140 | CSCC[C@@H]1NC(=O)[C@H](Cc2c[nH]cn2)NC(=O)[C@H](CO)NC(=O)[C@@H](NC(=O)[C@H](Cc2c[nH]c3ccccc23)NC(=O)[C@H](Cc2ccc(O)cc2)NC(C)=O)CSSC[C@@H](C(=O)N[C@@H](Cc2c[nH]c3ccccc23)C(=O)N[C@@H](CCCNC(=N)N)C(N)=O)NC(=O)[C@H](C(C)C)NC(=O)[C@H]([C@@H](C)O)NC(=O)[C@H]([C@@H](C)O)NC(=O)[C@H](Cc2ccc(O)cc2)NC(=O)[C@H](Cc2ccc(O)cc2)NC1=O (Ac-YWCSHMYYTTVCWR-NH2; disulfide 3-12) | 300 |
| inactive | inactive | inactive | inactive |  | CC(C)C[C@@H]1NC(=O)[C@@H]2CCCN2C(=O)[C@H](CC(C)C)NC(=O)[C@H](Cc2c[nH]c3ccccc23)NC(=O)[C@@H](NC(=O)[C@H](Cc2ccccc2)NC(=O)[C@H](CCC(=O)O)NC(=O)[C@@H](NC(=O)[C@@H](NC(=O)[C@H](CCC(=O)O)NC(=O)[C@H](C)N)[C@@H](C)O)C(C)C)CSSC[C@@H](C(N)=O)NC(=O)[C@H](Cc2ccccc2)NC(=O)[C@H](Cc2ccc(O)cc2)NC(=O)[C@H](Cc2c[nH]c3ccccc23)NC(=O)[C@H](Cc2c[nH]cn2)NC(=O)[C@H](CO)NC1=O (H-AETVEFCWLPLSHWYFC-NH2; disulfide 7-17) | 1360 |
| inactive | inactive | inactive | inactive |  | CC(C)C[C@@H]1NC(=O)[C@@H]2CCCN2C(=O)[C@H](C(C)C)NC(=O)[C@H](Cc2c[nH]c3ccccc23)NC(=O)[C@@H](NC(=O)[C@H](Cc2ccccc2)NC(=O)[C@H](CCC(=O)O)NC(=O)[C@@H](NC(=O)[C@@H](NC(=O)[C@H](CCC(=O)O)NC(=O)[C@H](C)N)[C@@H](C)O)C(C)C)CSSC[C@@H](C(N)=O)NC(=O)[C@H](C(C)C)NC(=O)[C@H](CCC(N)=O)NC(=O)[C@H](Cc2ccccc2)NC(=O)[C@H](Cc2ccc(O)cc2)NC(=O)[C@H](CO)NC1=O (H-AETVEFCWVPLSYFQVC-NH2; disulfide 7-17) | 1500 |
|  | inactive | inactive | inactive | 2600 | CC(C)[C@@H]1NC(=O)[C@H](CCCNC(=N)N)NC(=O)[C@@H]2CCCN2C(=O)[C@H](CC(=O)O)NC(=O)[C@H](Cc2ccc(O)cc2)NC(=O)[C@H](Cc2c[nH]c3ccccc23)NC(=O)CNC(=O)[C@@H](NC(=O)[C@H](Cc2ccc(O)cc2)NC(=O)[C@H](Cc2c[nH]c3ccccc23)NC(=O)[C@H](Cc2ccccc2)NC(=O)[C@H](CCC(=O)O)NC(=O)[C@@H](NC(=O)[C@@H](NC(=O)[C@H](CCC(=O)O)NC(=O)[C@H](C)N)[C@@H](C)O)C(C)C)CSSC[C@@H](C(=O)N[C@@H](CO)C(=O)N[C@@H](Cc2ccc(O)cc2)C(N)=O)NC(=O)CNC1=O (H-AETVEFWYCGWYDPRVGCSY-NH2; disulfide 9-18) | 500 |
| inactive | inactive | inactive | inactive |  | C[C@@H]1NC(=O)[C@H](CCCNC(=N)N)NC(=O)[C@H](CCCNC(=N)N)NC(=O)CNC(=O)[C@@H](N)CSSC[C@@H](C(N)=O)NC(=O)[C@H](CO)NC(=O)CNC(=O)CNC1=O (H-CGRRAGGSC-NH2; disulfide 1-9) | > 28000 |
|  | inactive | inactive | inactive |  | Cc1c(-c2ccc(O)cc2)n(Cc2ccc(OCCN3CCCCCC3)cc2)c2ccc(O)cc12 [BAZEDOXIFENE] | 11800 |
